Data published in publication PMC7531004, “Discovery of gramicidin A analogues with altered activities by multidimensional screening of a one-bead-one-compound library” (Nature Communications, 2020).
Where a SMILES comes first, the peptide text is derived from it. [ ]: non-standard residue; d: D form. The star is where a group is joined. NHCH2CH2OH = OCCN*; For = O=C*

What was measured:
[1] = H+/Na+ transport assay of bead-derived peptides (one-point); type: biochemical; set-up: key: relative activity; mean of two control wells = 1.00; settings: bead-derived peptide solution, EYPC/EYPG LUVs;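 also: relative to parent gramicidin A activity set to 1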
Summary of the method: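 Pyranine (1.0 mM)-loaded LUVs containing egg yolk phosphatidylglycerol were prepared by film hydration, sonication and extrusion, then mixed with diluted bead-derived peptide in 96-well format and vortexed 30 min at room temperature. Fluorescence was normalized between untreated LUVs (0%) and Triton X-100 lysis (100%).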

[2] = cell viability/%
Summary of the method: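 P388 cells at 1 × 10^4 cells/mL (final) were exposed to library peptides (stocks diluted 250-fold in RPMI1640/10% FBS) for 92 h at 37 °C, 5% CO2. Viable cells were counted by WST-1/1-methoxy PMS (4 h), absorbance 415 nm, and expressed as cell viability (%).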

[3] = system: Streptococcus pyogenes SSI-9; experiment: Antibacterial activity assay of bead-derived peptides (three concentrations); type: cell-based; set-up: key: +++: inhibition by the 640-fold diluted peptide solution; ++: inhibition by the 160-fold diluted solution; +: inhibition by the 40-fold diluted solution; -: no inhibition; settings: S. pyogenes, bead-derived peptide solution, three concentrations
Summary of the method: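 Undiluted, 4-fold and 16-fold DMSO-diluted peptide stocks; S. pyogenes SSI-9, 2 × 10^5 CFU, cation-adjusted MHB (50 mg/L Ca2+, 25 mg/L Mg2+) + 5% laked horse blood; 37 °C, 18 h; readout = cell pellet visible or not.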

| Structure (SMILES) | H+/Na+ transport activity normalized against the value of 1 (1.00) [1] | viability [2] [%] | antibacterial activity [3] |
| --- | --- | --- | --- |
| CC(C)C[C@@H](NC(=O)[C@H](C)NC(=O)CNC(=O)[C@@H](NC=O)C(C)C)C(=O)N[C@@H](C)C(=O)N[C@@H](C(=O)N[C@H](C(=O)N[C@@H](C(=O)N[C@@H](Cc1c[nH]c2ccccc12)C(=O)N[C@@H](C(=O)N[C@@H](Cc1c[nH]c2ccccc12)C(=O)N[C@@H](C(=O)N[C@@H](Cc1c[nH]c2ccccc12)C(=O)N[C@H](CC(C)C)C(=O)N[C@@H](Cc1c[nH]c2ccccc12)C(=O)NCCO)C(C)C)C(C)C)C(C)C)C(C)C)[C@H](C)O [compound 2475] (For-VGA[dL]A[dT]V[dV]W[dV]W[dV]W[dL]W-NHCH2CH2OH) | 1.13 | 100 | - |
| CC(C)C[C@@H](NC(=O)[C@H](C)NC(=O)[C@H](NC(=O)[C@H](C)NC(=O)CNC(=O)[C@@H](NC=O)C(C)C)C(C)C)C(=O)N[C@H](C(=O)N[C@H](CC(C)C)C(=O)N[C@@H](Cc1c[nH]c2ccccc12)C(=O)N[C@H](CC(C)C)C(=O)N[C@@H](Cc1c[nH]c2ccccc12)C(=O)N[C@@H](C(=O)N[C@@H](Cc1c[nH]c2ccccc12)C(=O)N[C@@H](C(=O)N[C@@H](Cc1c[nH]c2ccccc12)C(=O)NCCO)C(C)C)C(C)C)C(C)C [compound 9247] (For-VGA[dV]A[dL]V[dL]W[dL]W[dV]W[dV]W-NHCH2CH2OH) | 1.02 | 6 | + |
| CC(C)C[C@@H](NC(=O)[C@H](C)NC(=O)[C@H](NC(=O)[C@H](C)NC(=O)CNC(=O)[C@@H](NC=O)C(C)C)C(C)C)C(=O)N[C@H](C(=O)N[C@H](CC(C)C)C(=O)N[C@@H](Cc1c[nH]c2ccccc12)C(=O)N[C@H](CC(C)C)C(=O)N[C@@H](Cc1c[nH]c2ccccc12)C(=O)N[C@H](CC(C)C)C(=O)N[C@@H](Cc1c[nH]c2ccccc12)C(=O)N[C@H](CC(C)C)C(=O)N[C@@H](Cc1c[nH]c2ccccc12)C(=O)NCCO)C(C)C [compound 527] (For-VGA[dV]A[dL]V[dL]W[dL]W[dL]W[dL]W-NHCH2CH2OH) | 1.16 | 5.9 | ++ |
| CC(C)C[C@@H](NC(=O)[C@H](C)NC(=O)CNC(=O)[C@@H](NC=O)C(C)C)C(=O)N[C@@H](C)C(=O)N[C@@H](C(=O)N[C@H](C(=O)N[C@@H](C(=O)N[C@@H](Cc1c[nH]c2ccccc12)C(=O)N[C@@H](C(=O)N[C@@H](Cc1c[nH]c2ccccc12)C(=O)N[C@H](CC(C)C)C(=O)N[C@@H](Cc1c[nH]c2ccccc12)C(=O)N[C@@H](C(=O)N[C@@H](Cc1c[nH]c2ccccc12)C(=O)NCCO)C(C)C)[C@H](C)O)[C@H](C)O)C(C)C)C(C)C [compound 5747] (For-VGA[dL]A[dV]V[dT]W[dT]W[dL]W[dV]W-NHCH2CH2OH) | 1.09 | 100 | - |
| CC(C)C[C@@H](NC(=O)[C@H](C)NC(=O)CNC(=O)[C@@H](NC=O)C(C)C)C(=O)N[C@@H](C)C(=O)N[C@@H](C(=O)N[C@H](C(=O)N[C@@H](C(=O)N[C@@H](Cc1c[nH]c2ccccc12)C(=O)N[C@@H](C(=O)N[C@@H](Cc1c[nH]c2ccccc12)C(=O)N[C@H](CC(C)C)C(=O)N[C@@H](Cc1c[nH]c2ccccc12)C(=O)N[C@@H](C(=O)N[C@@H](Cc1c[nH]c2ccccc12)C(=O)NCCO)C(C)C)[C@H](C)O)C(C)C)C(C)C)C(C)C [compound 5657] (For-VGA[dL]A[dV]V[dV]W[dT]W[dL]W[dV]W-NHCH2CH2OH) | 1.09 | 81.3 | - |
| CC(C)C[C@@H](NC(=O)[C@H](C)NC(=O)CNC(=O)[C@@H](NC=O)C(C)C)C(=O)N[C@@H](C)C(=O)N[C@@H](C(=O)N[C@H](C(=O)N[C@@H](C(=O)N[C@@H](Cc1c[nH]c2ccccc12)C(=O)N[C@@H](C(=O)N[C@@H](Cc1c[nH]c2ccccc12)C(=O)N[C@H](CC(C)C)C(=O)N[C@@H](Cc1c[nH]c2ccccc12)C(=O)N[C@H](CC(C)C)C(=O)N[C@@H](Cc1c[nH]c2ccccc12)C(=O)NCCO)C(C)C)[C@H](C)O)C(C)C)C(C)C [compound 2290] (For-VGA[dL]A[dV]V[dT]W[dV]W[dL]W[dL]W-NHCH2CH2OH) | 1.14 | 100 | - |
| CNC(=O)C[C@@H](NC(=O)[C@H](Cc1c[nH]c2ccccc12)NC(=O)[C@H](NC(=O)[C@@H](NC(=O)[C@@H](CC(C)C)NC(=O)[C@H](C)NC(=O)[C@@H](CC(C)C)NC(=O)[C@H](C)NC(=O)CNC(=O)[C@@H](NC=O)C(C)C)C(C)C)C(C)C)C(=O)N[C@@H](Cc1c[nH]c2ccccc12)C(=O)N[C@H](CC(C)C)C(=O)N[C@@H](Cc1c[nH]c2ccccc12)C(=O)N[C@@H](C(=O)N[C@@H](Cc1c[nH]c2ccccc12)C(=O)NCCO)C(C)C [compound 3329] (For-VGA[dL]A[dL]V[dV]W[dD](NHMe)W[dL]W[dV]W-NHCH2CH2OH) | 1.33 | 100 | + |
| CC(C)C[C@@H](NC(=O)[C@H](C)NC(=O)CNC(=O)[C@@H](NC=O)C(C)C)C(=O)N[C@@H](C)C(=O)N[C@H](CC(C)C)C(=O)N[C@H](C(=O)N[C@@H](C(=O)N[C@@H](Cc1c[nH]c2ccccc12)C(=O)N[C@@H](C(=O)N[C@@H](Cc1c[nH]c2ccccc12)C(=O)N[C@@H](C(=O)N[C@@H](Cc1c[nH]c2ccccc12)C(=O)N[C@H](CC(C)C)C(=O)N[C@@H](Cc1c[nH]c2ccccc12)C(=O)NCCO)C(C)C)[C@H](C)O)C(C)C)C(C)C [compound 2931] (For-VGA[dL]A[dL]V[dV]W[dT]W[dV]W[dL]W-NHCH2CH2OH) | 1.06 | 100 | + |
| CC(C)C[C@@H](NC(=O)[C@H](C)NC(=O)CNC(=O)[C@@H](NC=O)C(C)C)C(=O)N[C@@H](C)C(=O)N[C@H](CC(C)C)C(=O)N[C@H](C(=O)N[C@@H](C(=O)N[C@@H](Cc1c[nH]c2ccccc12)C(=O)N[C@H](CC(C)C)C(=O)N[C@@H](Cc1c[nH]c2ccccc12)C(=O)N[C@@H](C(=O)N[C@@H](Cc1c[nH]c2ccccc12)C(=O)N[C@H](CC(C)C)C(=O)N[C@@H](Cc1c[nH]c2ccccc12)C(=O)NCCO)C(C)C)[C@H](C)O)C(C)C [compound 8604] (For-VGA[dL]A[dL]V[dT]W[dL]W[dV]W[dL]W-NHCH2CH2OH) | 1.08 | 54.4 | - |
| CNC(=O)C[C@@H](NC(=O)[C@@H](NC(=O)[C@@H](CC(C)C)NC(=O)[C@H](C)NC(=O)[C@H](NC(=O)[C@H](C)NC(=O)CNC(=O)[C@@H](NC=O)C(C)C)C(C)C)C(C)C)C(=O)N[C@@H](Cc1c[nH]c2ccccc12)C(=O)N[C@H](CC(C)C)C(=O)N[C@@H](Cc1c[nH]c2ccccc12)C(=O)N[C@H](CC(C)C)C(=O)N[C@@H](Cc1c[nH]c2ccccc12)C(=O)N[C@H](CC(C)C)C(=O)N[C@@H](Cc1c[nH]c2ccccc12)C(=O)NCCO [compound 1242] (For-VGA[dV]A[dL]V[dD](NHMe)W[dL]W[dL]W[dL]W-NHCH2CH2OH) | 1.13 | 65.8 | - |
